# Experimental data published in article PMC10502144, “Anti-methicillin-resistant Staphylococcus aureus activity and safety evaluation of 14-O-[(5-ethoxycarbonyl-4,6-dimethylpyrimidine-2-yl) thioacetyl] mutilin (EDT)” (Scientific Reports, 2023).
# Read-outs that look alike come from different tables or passages of the source.
# Key:
# [1] = system: GFP expression in S. aureus ATCC 29,213; assay: Green fluorescent protein (GFP) inhibition assay; type: cell-based, Staphylococcus aureus; conditions: 1 and 4 μM, co-incubation 4 h, fluorescence microscopy
# Description: The inhibition assay against GFP expression was performed according to our previous report[41] with minor modification. Plasmids carried erythromycin resistant genes were labeled with GFP and electrotransformed into S. aureus. After screenings using erythromycin, S. aureus strain expressing GFP was then obtained and grown to mid-logarithmic phase, followed by collecting centrifugally and re-suspending with PBS buffer. The obtained suspensions were co-incubated with EDT and tiamulin with the final concentrations of 1 and 4 μM, respectively, for 4 h at 37 °C. The cells were subsequently collected by centrifugation to perform imaging using fluorescence microscopy after re-suspending with PBS buffer.
# MRSA-337371 [2] = assay: Post-antibiotic effect (PAE) test, viable counting; type: cell-based, methicillin-resistant Staphylococcus aureus; conditions: 1 h exposure
# Description: The PAE of EDT against MRSA-337371 was determined using a standard viable counting method. We selected 1 × , 2 × , 4 × and 8 × MICs of EDT and tiamulin (0.0313 and 0.5 μg/mL, respectively), to conduct PAE test on MRSA strains. The strains (1 × 10^5 CFU/mL) were placed in MHB broth test tubes containing the above four concentrations of EDT and tiamulin, respectively, and cultured in a shaking bed at 37 °C for 1 h, followed by centrifuging for 10 min at 4000 r/min. The supernatants were discarded and the precipitations were dissolved with 2 mL normal saline to centrifuge. The same procedure was repeated three times. The final bacterial precipitates were taken and cultured in MHB broth with the initial concentration of 5.5 Log CFU/mL at 37 °C in a shaking bed. Samples were then taken at 0, 1, 2, 3, 4, 5, 6, 8, 12, 18 and 24 h to dilute 10–100,000 times and the 10 μL dilutions were evenly smear on MHA plate medium to culture at 37 °C for 48 h. Finally, the average numbers of colonies on the plates were obtained and the PAE values were calculated as hour using equation PAE = T − C, in which T was the time required for the increase of 1 log10 CFU/mL after the removal of drugs and C was the time required for the number of MRSA in the control tube to increase by 1 log10 CFU/mL. Experiments were performed in triplicate.
# [3] = Cytotoxicity assay (CCK-8), HepG2; type: cell-based; conditions: human, HepG2 cells
# Description: Cytotoxicity of EDT and tiamulin was studied against human hepatocellular carcinoma cells (HepG2) and human embryonic kidney 293T (HEK293T) cells following a protocol as published in our earlier reports[41],[42]. Cells were counted and inoculated into 96-well plates with approximately10^5 cells density for incubating 24 h at 37 °C. […] The same procedure was repeated three times. The percentages of cell viability were calculated by the formula: Cell viability (%) = [Asample ‒ Anegative]/[Apositve ‒ Anegative] × 100%.
# MRSA-337371 [4] = assay: microbe, parasite or virus in culture; type: cell-based, methicillin-resistant Staphylococcus aureus; conditions: for MIC: Staphylococcus aureus, MRSA
# Description: We performed resistance induction tests on EDT and tiamulin which was used as a referent drug. […] Finally, MRSA was cultured for 30 generations with the same procedure. At the 31st generation, drugs were removed until 40th generation and MICs were determined in each generation.
compound,measurement,setting,value
"C=CC1(C)CC(OC(=O)CSc2nc(C)c(C(=O)OCC)c(C)n2)C2(C)C(C)CCC3(CCC(=O)C32)C(C)C1O (stereo not drawn) [EDT, 14-O-[(5-ethoxycarbonyl-4,6-dimethylpyrimidine-2-yl)thioacetyl] mutilin]",inhibition of GFP expression (green fluorescence intensity),[1],effectively inhibited the expression of GFP
same,"PAE values, concentration dependence","MRSA-337371 [2]; 1×, 2×, 4× and 8× MIC",increased PAE values in a concentration-dependent manner
same,PAE values compared with tiamulin,"MRSA-337371 [2]; at four tested concentrations (1×, 2×, 4×, 8× MIC)",extremely significantly higher than that of tiamulin
same,"viability at 6 h, 100 µM","[3]; HepG2, 100 μM, read-out: cell viability",99.7%
same,CC50 at 6 h,"[3]; HepG2, 200 μM converted to μg/mL",> 115 µg/mL
same,"viability at 6 h, 200 µM","[3]; HepG2, 200 μM, read-out: cell viability",77.5%
same,CC50 at 6 h,"[3]; HepG2, deduced from Fig. 5",> 200 µM
same,increase of MIC,MRSA-337371 [4]; 30 generations under the subinhibitory concentration (1/4 MIC),fourfold
same,MIC,"MRSA-337371 [4]; 24 h, read-out: MIC in the resistance development study, day 1",0.0313 µg/mL
same,MIC,"MRSA-337371 [4]; 48 h, read-out: MIC in the resistance development study, day 2",0.0313 µg/mL
same,MIC,"MRSA-337371 [4]; 72 h, read-out: MIC in the resistance development study, day 3",0.0313 µg/mL
same,MIC,"MRSA-337371 [4]; 96 h, read-out: MIC in the resistance development study, day 4",0.0313 µg/mL
same,MIC,"MRSA-337371 [4]; 120 h, read-out: MIC in the resistance development study, day 5",0.0313 µg/mL
same,MIC,"MRSA-337371 [4]; 144 h, read-out: MIC in the resistance development study, day 6",0.0313 µg/mL
same,MIC,"MRSA-337371 [4]; 168 h, read-out: MIC in the resistance development study, day 7",0.0313 µg/mL
same,MIC,"MRSA-337371 [4]; 192 h, read-out: MIC in the resistance development study, day 8",0.0313 µg/mL
same,MIC,"MRSA-337371 [4]; 216 h, read-out: MIC in the resistance development study, day 9",0.0313 µg/mL
same,MIC,"MRSA-337371 [4]; 240 h, read-out: MIC in the resistance development study, day 10",0.0313 µg/mL
same,MIC,"MRSA-337371 [4]; 264 h, read-out: MIC in the resistance development study, day 11",0.0313 µg/mL
same,MIC,"MRSA-337371 [4]; 288 h, read-out: MIC in the resistance development study, day 12",0.0625 µg/mL
same,MIC,"MRSA-337371 [4]; 312 h, read-out: MIC in the resistance development study, day 13",0.0625 µg/mL
same,MIC,"MRSA-337371 [4]; 336 h, read-out: MIC in the resistance development study, day 14",0.0313 µg/mL
same,MIC,"MRSA-337371 [4]; 360 h, read-out: MIC in the resistance development study, day 15",0.0313 µg/mL
same,MIC,"MRSA-337371 [4]; 384 h, read-out: MIC in the resistance development study, day 16",0.0313 µg/mL
same,MIC,"MRSA-337371 [4]; 408 h, read-out: MIC in the resistance development study, day 17",0.0625 µg/mL
same,MIC,"MRSA-337371 [4]; 432 h, read-out: MIC in the resistance development study, day 18",0.0625 µg/mL
same,MIC,"MRSA-337371 [4]; 456 h, read-out: MIC in the resistance development study, day 19",0.0625 µg/mL
same,MIC,"MRSA-337371 [4]; 480 h, read-out: MIC in the resistance development study, day 20",0.125 µg/mL
same,MIC,"MRSA-337371 [4]; 504 h, read-out: MIC in the resistance development study, day 21",0.125 µg/mL
same,MIC,"MRSA-337371 [4]; 528 h, read-out: MIC in the resistance development study, day 22",0.125 µg/mL
same,MIC,"MRSA-337371 [4]; 552 h, read-out: MIC in the resistance development study, day 23",0.125 µg/mL
same,MIC,"MRSA-337371 [4]; 576 h, read-out: MIC in the resistance development study, day 24",0.125 µg/mL
same,MIC,"MRSA-337371 [4]; 600 h, read-out: MIC in the resistance development study, day 25",0.125 µg/mL
same,MIC,"MRSA-337371 [4]; 624 h, read-out: MIC in the resistance development study, day 26",0.125 µg/mL
same,MIC,"MRSA-337371 [4]; 648 h, read-out: MIC in the resistance development study, day 27",0.125 µg/mL
same,MIC,"MRSA-337371 [4]; 672 h, read-out: MIC in the resistance development study, day 28",0.125 µg/mL
same,MIC,"MRSA-337371 [4]; 696 h, read-out: MIC in the resistance development study, day 29",0.125 µg/mL
same,MIC,"MRSA-337371 [4]; MRSA-337371, MIC used to set 1×-8× MIC in the PAE test",0.0313 µg/mL
same,MIC,"MRSA-337371 [4]; read-out: MIC in the resistance development study, day 30",0.125 µg/mL
same,MIC,"MRSA-337371 [4]; read-out: MIC in the resistance development study, day 31, drugs removed",0.125 µg/mL
same,MIC,"MRSA-337371 [4]; read-out: MIC in the resistance development study, day 32, drugs removed",0.125 µg/mL
same,MIC,"MRSA-337371 [4]; read-out: MIC in the resistance development study, day 33, drugs removed",0.0625 µg/mL
same,MIC,"MRSA-337371 [4]; read-out: MIC in the resistance development study, day 34, drugs removed",0.0625 µg/mL
same,MIC,"MRSA-337371 [4]; read-out: MIC in the resistance development study, day 35, drugs removed",0.0313 µg/mL
same,MIC,"MRSA-337371 [4]; read-out: MIC in the resistance development study, day 36, drugs removed",0.0313 µg/mL
same,MIC,"MRSA-337371 [4]; read-out: MIC in the resistance development study, day 37, drugs removed",0.0313 µg/mL
same,MIC,"MRSA-337371 [4]; read-out: MIC in the resistance development study, day 38, drugs removed",0.0313 µg/mL
same,MIC,"MRSA-337371 [4]; read-out: MIC in the resistance development study, day 39, drugs removed",0.0313 µg/mL
same,MIC,"MRSA-337371 [4]; read-out: MIC in the resistance development study, day 40, drugs removed",0.0313 µg/mL
same,sensitivity of MRSA after removing drugs,MRSA-337371 [4]; after removing drugs and culturing for additional 10 generations,recovered the initial sensitivity
same,increase in the MIC values,MRSA-337371 [4]; at 22 generations,fourfold
